According to patent US11226337B2, “Chemoproteomic profiling of protein electrophilic and oxidative post-translational modifications” (Zenagem, LLC, priority 2017, dated 2022):
Entries after “also recorded” stand apart in the source; their conditions may differ.

Key:
HEK293T cells = test: CellTiter-Glo luminescence cell viability assay; assay type: cell-based, human; conditions: probe 1 3 mM, 1 hour, 37° C., n=4; untreated 132±2
Procedure: Working stock solutions of probes and competitors were neutralized prior to treatment and media was supplemented with 10 mM Na-HEPES (pH 7.5) to enhance the buffer capacity to ensure the pH was maintained. The phenol red pH indicator of the media confirmed that there was no substantial change in pH during the treatment. Cell viability was quantified based on ATP levels in the absence and presence of probe 1 with or without competitor probe 3 using the CellTiter-Glo luminescence assay (Promega). Trypsinized HEK293T cells were diluted in serum-free DMEM supplemented with 10 mM Na-HEPES to a final concentration of 0.8 million cells/mL. To a cell culture microplate (Greiner Bio-One No. 655098; white, 96-well, 34 mm^2 growth area per well, Clear bottom), 80,000 cells (100 μL of cell suspension) were plated per well. […] After 20 minutes at ambient temperature, luminescence was measured on a Biotech Synergy 4 plate reader. Well luminescence, in relative light units (RLU), under each condition (n=4 of each) was measured to determine cell viability according to the formula: Iuntreated, Iprobe 1, and Iprobe 1/competitor 3=(132±2, 139±2, and 134±1)×10^3 RLU. “Iuntreated” refers to the intensity of luminescence of untreated cells; and “Iprobe 1” refers to the intensity of luminescence of probe-1 treated cells.

AMD1 pyruvoyl cofactor = biological target: T1, AMD1 pyruvoyl cofactor (Homo sapiens, UniProt P17707); test: in vitro labelling of purified reconstituted AMD1, LC-MS/MS; assay type: binding; conditions: 50 μM AMD1, 3 mM probe 1, overnight
T1 construct: made in house; host or cells: E. coli (vector pQE30)
T1 sequence (P17707 68-334 limits assumed): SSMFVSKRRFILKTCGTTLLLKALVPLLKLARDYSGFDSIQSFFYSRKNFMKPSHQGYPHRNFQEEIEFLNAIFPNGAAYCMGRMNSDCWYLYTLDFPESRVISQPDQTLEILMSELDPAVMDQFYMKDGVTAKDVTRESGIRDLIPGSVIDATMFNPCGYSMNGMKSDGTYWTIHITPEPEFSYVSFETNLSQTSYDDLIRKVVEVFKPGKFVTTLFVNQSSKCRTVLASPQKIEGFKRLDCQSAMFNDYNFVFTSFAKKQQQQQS
T1 sequence (P17707 1-67 partner limits assumed): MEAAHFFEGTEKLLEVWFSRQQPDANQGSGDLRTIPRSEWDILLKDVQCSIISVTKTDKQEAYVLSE
Procedure: Full-length AMD1 having an additional 12 amino acids (MRGSH6GS) (SEQ ID NO: 46) appended to the N-terminal methionine residue was expressed from the bacterial vector pQE30. The appendage contains a His6 element (SEQ ID NO: 69) to permit purification of the protein by metal ion affinity chromatography on Ni-NTA agarose (Qiagen). E. coli cell cultures were grown at 37° C. in rich LB broth (35 g/L tryptone, 20 g/L yeast extract, 5 g/L NaCl, and 0.05 g/L kanamycin (pH 7.0)) to an optical density at 600 nm of 0.6-0.8. The flasks were cooled rapidly by incubation on ice for 30 minutes prior to addition of IPTG (1 mM). Following induction, cultures were grown at 15-18° C. for an additional 16-20 hours and cells were harvested by centrifugation (8,000 g, 30 min, 4° C.). The cell paste was flash-frozen in liquid N2 and stored at −80° C. A typical yield was 8-10 g of wet cell paste per liter of culture. […]
A 100 μL solution of 50 μM purified reconstituted AMD1 in PBS was incubated overnight at ambient temperature in the presence or absence of 3 mM probe 1 (pH 7). […] Peptides were eluted from the column using a 180 minute gradient from 0% to 50% Buffer B (Buffer A: 5% acetonitrile, 95% H2O, 0.1% formic acid; Buffer B: 80% acetonitrile, 20% H2O, 0.1% formic acid) and analyzed on an LTQ-Orbitrap Finnigan mass spectrometer (Thermo Scientific). […]

[1] = tested on: lung, brain and liver tissue; test: in vivo probe labelling, in-gel fluorescence of tissue proteomes; parameters: species or system mice; conditions: i.p., four hours; soluble and membrane proteomes
Procedure: Studies were conducted to determine whether probes can be used to label proteins in vivo. Mice were injected intraperitoneally (i.p,) with hydrazine probe 2. After treatment with probes for four hours, lung, brain and liver tissue was harvested, processed and labeled with rhodamine azide as described in Example 2. Probe labelled proteins were visualized by in-gel fluorescence scanning. The results are shown FIGS. 24A and 24B.

| Compound | Well luminescence (cell viability based on ATP levels) (HEK293T cells) | site specificity of the reaction (AMD1 pyruvoyl cofactor) | extent of reaction with the pyruvoyl group (AMD1 pyruvoyl cofactor; ambient temperature, hydrochloride) | labelling of proteins in vivo [1] |
| --- | --- | --- | --- | --- |
| C#CCNN.Cl [probe 1, prop-2-yn-1-ylhydrazine hydrochloride] | 139±2 ×10^3 RLU | reacted specifically with the N-terminal pyruvoyl group | the reaction with probe 1 was complete; also recorded: proceeded to near-completion | – |
| C#CCCNC(=O)c1ccc(NN)cc1.Cl [probe 2, N-(but-3-yn-1-yl)-4-hydrazinylbenzamide hydrochloride] | – | – | – | can be used to label and profile proteins in vivo |
